Assay results: PMC8147656 (Journal of Personalized Medicine, 2021)
Where two headings read alike, the source gives them in different places.

What was measured:
[1] = Clinical trial on omeprazole-gliclazide interaction in healthy volunteers, CYP2C19 NM/RM/UM; type: in vivo, human; conditions: for AUC(0-t): male, human, serum, oral, 40 mg, gliclazide 40 mg tablet, current trial, geometric mean (95% CI), read-out: AUC0–24, observed
Text: Fifteen healthy volunteers (men, age 18–30 years, non-smokers) with CYP2C19 NM/RM/UM status were recruited. The exclusion criteria included: a medical history of hepatic, renal, gastrointestinal or hematologic disease or any acute or chronic disease; drug allergy to sulfonylureas or PPIs; history of drug abuse; abnormalities in physical examination, ECG or routine clinical laboratory tests (including fasting blood glucose concentration); medication use during the 14 days prior to and during the study period; grapefruit, grapefruit juice, alcohol, beverages or food containing methylxanthines use during the 72 h prior to and during the study period.
On day 5 of each admission period, after an overnight fast, the volunteers were admitted to the hospital. […] Drugs were given in a sitting position, at 8 AM. Volunteers were not permitted to lie down or sleep for the next 4 h after taking drugs, as well as to perform any strenuous activities for the next 24 h. In order to counteract the blood glucose-lowering action of gliclazide, volunteers received standardized meals: breakfast at 30 min after gliclazide intake, snacks after 2 and 3 h, a lunch (warm meal) after 4 h, a snack after 6 h, dinner after 8 h, and additional snacks at 10 h and 12 h after drugs administration. No other food and drink (with the exception of water) were allowed. For safety reasons, the volunteers were under direct medical supervision throughout the 24 h following drugs administration. Fast-acting carbohydrates, glucose solution for i.v. use and glucagon for intramuscular use were available in case of hypoglycemia.
Venous blood samples were collected on day 5 of each admission period before dosing (0 h) and 0.5, 1, 1.5, 2, 2.5, 3, 3.5, 4, 4.5, 5, 6, 8, 10, 12, 15 and 24 h after gliclazide administration. Serum samples for gliclazide quantification were separated within 30 min following each blood sample collection and stored at −80 °C until the analysis.
Serum gliclazide concentrations were quantified using a validated stable isotope dilution liquid chromatography-tandem mass spectrometry (LC-MS/MS) method. In brief, a total of 10 µL serum was added to 90 µL acetonitrile containing 100 ng/mL of d4-gliclazide and 0.1% formic acid. […] Gliclazide was quantitated by the triple quadrupole mass spectrometer in ESI positive ion mode. […] The limit of quantification was 3.1 ng/mL.
PK parameters were calculated in a noncompartmental analysis using PKSolver, a program for PK data analysis in Microsoft Excel. The area under the plasma gliclazide concentration-time curve (AUC) up to the last concentration measured (AUC0–t) was determined using the linear trapezoidal rule.
The main evaluated outcome was systemic exposure to gliclazide, expressed as AUC0–t. The geometric mean was calculated for AUC0–24. […]

[2] = single oral gliclazide, healthy Chinese volunteers, cited from earlier work
[3] = In vitro dissolution testing under biorelevant media-change conditions; type: physicochemical; conditions: conditions without vs with omeprazole (gastric pH)
Experimental: In order to estimate the drug release rate in vivo and concomitant absorption profile, dissolution tests were performed under biorelevant media-change conditions (Table 3), using USP apparatus 2 (Erweka DT 800, Heusenstamm, Germany) at 37 ± 0.5 °C and rotational speed of 100 rpm. Withdrawn aliquots were filtered, diluted and analysed for gliclazide by UV spectrophotometry (UV-1700 spectrophotometer, Shimadzu, Japan). The absorbance obtained at 226 nm was corrected by subtracting the absorbance obtained at 290 nm, according to British Pharmacopeia. All measurements were performed in triplicate. The pH values and tablet residence time in each medium were selected based on the proposed biorelevant dissolution test conditions. […] Medium pH 6.0 was used to simulate the fed state luminal conditions in the ascending colon.

[4] = Population observational study of patients with T2D (GoDARTS): severe gliclazide-induced hypoglycemia; type: in vivo, human; conditions: gliclazide-treated cohort with genetic data (48 cases and 288 controls); OR (95% CI), p = 0.187
Text: We used the Scottish Ambulance Service data and the Accident and Emergency diagnosis records to identify severe cases of hypoglycemia in Tayside and Fife, Scotland. […] Logistic regression was used to analyze the effect of the CYP2C19 variants and co-treatment with PPIs on gliclazide-induced hypoglycemia. All analyses were adjusted for known clinical predictors of hypoglycemia, including age, sex, age of T2D diagnosis, body mass index, creatinine and HbA1c [53], as well as the overall number of medications used as a proxy for comorbidities [54]. The CYP2C19 phenotypes were assigned based on diplotypes in the same manner as in healthy volunteers. The analyses were performed using SAS 9.3 (SAS Institute Inc., Cary, NC, USA). Statistical significance was set at p < 0.05.

[5] = system: CYP2C9; conditions: human liver microsomes, CYP selective inhibitors; cited from earlier work
[6] = cited from earlier work
[7] = system: CYP2C9; assay: CYP2C9-mediated metabolism (fm, intrinsic clearance); type: in vitro ADME, human; conditions: gliclazide; calculated from microsomal total intrinsic clearance [10], CYP abundances and fm [36]
Experimental: (§1) The full PBPK model was developed for gliclazide using a middle-out approach. The Vss was predicted by Simcyp Rodgers et al. + ion membrane permeability model. […] The intrinsic clearances per pmol of CYP enzymes were calculated using total intrinsic clearance measured in vitro in human liver microsomes, and fm values obtained from in vivo data. […] Considering the difference in abundance and activity of the transporter between liver and the transfected cell line, a relative activity factor (RAF) was optimized to fit the observed clinical data. Liver passive diffusion clearance (ClPD) of gliclazide was estimated based on experimental logD7.4 value.

[8] = system: CYP2C19; assay: CYP2C19-mediated metabolism (fm, intrinsic clearance); type: in vitro ADME, human
Experimental: (§2) Absorption was described by a first-order absorption model in line with previous studies. The steady-state volume of distribution (Vss) value was based on previous models.
as §1

[9] = system: OATP1B1; conditions: cited from earlier work
[10] = system: Mrp2; design: method as in PMID 18799822; conditions: cited from earlier work
[11] = gliclazide; ref Proks et al., 2018 [46]; cited from earlier work
[12] = cited from earlier work; remark: listed apart in the source
[13] = system: CYP2C19; conditions: cited from earlier work
[14] = omeprazole, cited from earlier work
[15] = system: CYP3A4; design: method as in PMID 24739523; conditions: omeprazole; average value for CYP2C19 EM/RM/UM phenotypes; cited from earlier work
[16] = system: CYP3A4; assay: CYP3A4-mediated metabolism (fm, intrinsic clearance); type: in vitro ADME, human; conditions: omeprazole; retrograde calculated from observed Clpo after 20 mg single dose, fa*fg = 1
Text: as §2

[17] = system: CYP2C19; conditions: previous study based on omeprazole enantiomers; cited from earlier work
[18] = system: CYP2C19; design: method as in Ogilvie et al., 2011 [27]; conditions: omeprazole; ref Ogilvie et al., 2011 [27]; cited from earlier work
[19] = design: method as in Hassan-Alin et al., 2005 [30]; conditions: geometric mean (95% CI), ref Hassan-Alin et al., 2005 [30], cited from earlier work; for Cmax: read-out: Cmax, observed
[20] = design: method as in PMID 11117653; conditions: healthy volunteers; cited from earlier work
[21] = gliclazide 30 mg MR tablet, single oral, geometric mean (95% CI)
[22] = gliclazide 80 mg IR tablet, single oral, geometric mean (95% CI)
[23] = gliclazide i.v. infusion 30 mg, geometric mean (95% CI)
[24] = gliclazide, ref Chen et al., 2018 [37]
[25] = gliclazide model input, ref Grbic et al., 2011 [40]
[26] = first-order absorption model, ref Ogilvie et al., 2011 [27]
[27] = omeprazole model input, ref Ogilvie et al., 2011 [27]

## Cc1ccc(S(=O)(=O)NC(=O)NN2CC3CCCC3C2)cc1 (stereo not drawn) [gliclazide]
[1]; 40 mg gliclazide with placebo or 20 mg omeprazole, healthy volunteers
  Hypoglycemia or other adverse effects in the trial: no cases of hypoglycemia or any other adverse effect
[1]; 40 mg gliclazide, 20 mg omeprazole 5 days, 14 healthy volunteers NM/RM/UM, ratio (90% CI)
  Geometric mean ratio of gliclazide AUC0–24, omeprazole phase/placebo phase: 1.13 (0.86–1.48)
[1]; omeprazole phase
  AUC(0-t): 3730 ng·h/mL
[1]; placebo phase
  AUC(0-t): 3290 ng·h/mL
[2]; ref 11
  Observed gliclazide AUC, fold higher in CYP2C19 PM compared to NM: 3.4 fold
[2]; ref 12
  Observed gliclazide AUC, fold higher in CYP2C19 PM compared to NM: 5.1 fold
[3]
  Initial gliclazide release rate between media pH 1.6 and pH 3.0: no difference
[4]
  Odds ratio of hypoglycemia for the loss-of-function CYP2C19*2 allele: 0.50 (0.18–1.40)
[5]
  Contribution of CYP2C9 to gliclazide metabolism: at least 65%
[6]; [21]
  AUC0–72, observed: 14.4 (12.4–16.8) µgh/mL
  AUC0–∞, observed: 15.6 (13.5–18.1) µgh/mL
  Cmax, observed: 0.71 (0.62–0.82) µg/mL
[6]; gliclazide 30 mg MR tablet, single oral, median (minimum–maximum)
  tmax, observed: 7 (4–10) h
[6]; [22]
  AUC0–48, observed: 45.5 (38.9–53.3) µgh/mL
  AUC0–∞, observed: 50.9 (42.8–60.5) µgh/mL
  Cmax, observed: 3.51 (3.24–3.80) µg/mL
  tmax, observed: 3.66 (3.10–4.33) h
[6]; [23]
  AUC0–72, observed: 15.5 (13.0–18.5) µgh/mL
  AUC0–∞, observed: 17.2 (14.5–20.3) µgh/mL
  Cmax, observed: 1.39 (1.16–1.67) µg/mL
[6]; gliclazide
  Vss observed in humans in vivo: 0.19 to 0.46 L/kg
[7]
  Clint CYP2C9: 0.004 µL/min/pmol
[8]; gliclazide, calculated from microsomal total intrinsic clearance [10], CYP abundances and fm [36]
  Clint CYP2C19: 0.273 µL/min/pmol
[9]
  Substrate of hepatic OATP1B1 transporter: substrate
[9]; [24]
  Km: 30.2 µM
  OATP1B1 Jmax: 12.9 pmol/min/10^6 cells
[10]
  Substrate for the efflux Mrp2 transporter in rats: substrate
[11]
  fu (fraction unbound): 0.15
[12]; gliclazide model input, ref El-Sabawi, et al., 2014 [45]
  Log P: 2.04
[12]; [25]
  Compound type: Ampholyte
  pKa (first value): 2.9
  pKa (second value): 5.8
[13]; human liver microsomes, CYP selective inhibitors
  Contribution of CYP2C19 to gliclazide metabolism: ≤ 35%

## COc1ccc2[nH]c([S+]([O-])Cc3ncc(C)c(OC)c3C)nc2c1 (stereo not drawn) [omeprazole]
[14]; [26]
  fa (fraction absorbed): 1
  ka (absorption rate constant): 6 h⁻¹
[14]; minimal PBPK model, ref Deng 2016 [29], Wu et al., 2014 [28]
  Vss: 0.15 L/kg
[14]; ref Wu et al., 2014 [28], Feng et al., 2015 [42]
  ClR (renal clearance): 0.037 L/h
[15]
  fm CYP3A4: 14%
[16]
  Clint CYP3A4: 0.39 µL/min/pmol
[8]; omeprazole, retrograde calculated from observed Clpo after 20 mg single dose, fa*fg = 1
  Clint CYP2C19: 75.1 µL/min/pmol
[17]
  Predicted lowest level of active CYP2C19, previous study: 14%
[12]; [27]
  Compound type: Ampholyte
  pKa (first value): 4.4
[13]; omeprazole, average value for CYP2C19 EM/RM/UM phenotypes
  fm CYP2C19: 86%
[18]
  Ki: 5 µM
[19]; omeprazole 20 mg day 1
  AUC0–∞, observed: 1.04 (0.64–1.72) µM × h
  Cmax: 1040 nM
[19]; omeprazole 20 mg day 5
  AUC0–∞, observed: 1.63 (0.96–2.78) µM × h
  Cmax: 1430 nM
[19]; omeprazole 40 mg day 1
  AUC0–∞, observed: 2.44 (1.53–3.91) µM × h
  Cmax: 2320 nM
[19]; omeprazole 40 mg day 5
  AUC0–∞, observed: 5.79 (3.60–9.33) µM × h
  Cmax: 3870 nM

## COc1ccnc(C[S+]([O-])c2nc3ccc(OC(F)F)cc3[nH]2)c1OC (stereo not drawn) [pantoprazole]
[20]
  Effect of pantoprazole on glibenclamide PK: no effect
